Measurements reported in article PMC6886665 (2019).

Tested on: truncated vancomycin aptamer (four base pairs removed from the stem), E-AB sensor (DNA, aptamer) CGAGGGTACCGCAATAGTACTTATTGTTCGCCTATTGTGGGTCGG
Experiment: electrochemical aptamer-based sensor, square-wave voltammetry
Conditions: undiluted flowing whole blood; surface-attached aptamer; apparent

KD: 45 µM
SMILES: CN[C@H](CC(C)C)C(=O)N[C@H]1C(=O)N[C@@H](CC(N)=O)C(=O)N[C@H]2C(=O)N[C@H]3C(=O)N[C@H](C(=O)N[C@H](C(=O)O)c4cc(O)cc(O)c4-c4cc3ccc4O)[C@H](O)c3ccc(c(Cl)c3)Oc3cc2cc(c3O[C@@H]2O[C@H](CO)[C@@H](O)[C@H](O)[C@H]2O[C@H]2C[C@](C)(N)[C@H](O)[C@H](C)O2)Oc2ccc(cc2Cl)[C@H]1O
